This note sets out measurements from paper PMC7070167, “Cell‐permeable high‐affinity tracers for Gq proteins provide structural insights, reveal distinct binding kinetics and identify small molecule inhibitors” (British Journal of Pharmacology, 2020).

The target in assay [1] is T1, Gq proteins (Homo sapiens, UniProt P50148).
T1 construct: Native cell membrane preparations from rat brain cortex and human blood platelets; host or cells: human platelets (intact suspension or membrane preparation)
T1 sequence (P50148 1-359): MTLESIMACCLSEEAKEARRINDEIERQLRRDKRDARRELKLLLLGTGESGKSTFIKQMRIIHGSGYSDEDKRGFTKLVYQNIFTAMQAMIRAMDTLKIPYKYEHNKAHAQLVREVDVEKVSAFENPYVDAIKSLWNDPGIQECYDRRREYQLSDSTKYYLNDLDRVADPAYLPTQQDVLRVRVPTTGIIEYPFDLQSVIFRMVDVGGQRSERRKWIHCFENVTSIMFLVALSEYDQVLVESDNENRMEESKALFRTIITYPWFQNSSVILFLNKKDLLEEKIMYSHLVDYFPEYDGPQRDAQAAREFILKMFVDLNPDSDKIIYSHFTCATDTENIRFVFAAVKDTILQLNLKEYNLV
The experiment in a line: Competition binding at human platelet membrane preparations. The settings on record: for Ki / pseudo‐Bmax from pseudohomologous competition: human platelet membranes, 37°C. As to the method: Apheresis‐purified human thrombocyte‐plasma concentrates were centrifuged (1,000 g at 4°C for 10 min), and the supernatant was decanted and centrifuged again (at 48,400 g, 4°C, for 60 min). The supernatant was kept and used as platelet‐poor plasma for control experiments; the formed pellet was resuspended in buffer 1 (50‐mM Tris–HCl, 5‐mM EDTA, and 150‐mM NaCl) and centrifuged at 48,400 g, 4°C for 60 min. The supernatant was discarded again and the pellet was resuspended in buffer 2 (5‐mM Tris–HCl and 5‐mM EDTA). The cell suspension was homogenized using an Ultra‐Turrax® (IKA Laborechnik, Staufen, Germany) for 1 min at a speed level of 4, subsequently transferred into cryovials, and stored at −80°C before use (the preparation is stable for several months). For radioligand binding assays, 50 μg of protein per vial was used, determined by the method of Bradford (Bio‐Rad Protein Assay).
(§1) The experiments were performed in 50‐mM Tris–HCl buffer, pH 7.4. The final assay volume of 200 μl contained 5 μl of test compound in DMSO, 50 μl of [^3H]PSB‐15900 or [^3H]PSB‐16254, respectively, in buffer, 5 nM of final concentration, and 100 μl of human platelet membrane preparation (50 μg of protein) or intact human platelets (7.5 × 10^6 cells/vial). Non‐specific binding was determined in the presence of 5‐μM FR. The incubation was started by the addition of membrane preparation and was performed at 37°C for 1 hr with gentle shaking. It was terminated by rapid vacuum filtration through GF/C glass‐fibre filters using a Brandel 24‐well harvester. The filters were rinsed three times with approximately 3 ml each of ice‐cold Tris–HCl buffer, 50 mM, pH 7.4 containing 0.1% Tween 20 and 0.1% BSA, to separate bound from free radioligand. The filters were punched out and transferred to scintillation vials. Luma Safe® scintillation cocktail (2.5 ml) was added, and after 6 hr of incubation, the samples were counted for 1 min each, using a liquid scintillation counter (counting efficiency 53%). Experiments in the presence of GTP were additionally performed after preincubation of the membrane preparation with GTP for 1 hr. pIC50 and pKi values were calculated using equations for one‐site competition as implemented in GraphPad Prism 6.01 (GraphPad Inc., La Jolla, CA, USA).

The target of assay [2] is T1, Gq proteins. Put plainly: Competition binding at intact human platelets. As to conditions: 37°C. The protocol: Apheresis‐purified human thrombocyte‐plasma concentrates (PRP) were obtained from the blood bank, University of Bonn, in accordance with ethical guidelines, and directly used. For radioligand binding assays, they were diluted with 50‐mM Tris–HCl buffer, pH 7.4, to obtain a concentration of 7.5 × 10^6 platelets/50 μl (corresponding to a 1:10 dilution).
as §1

Setting [3] is: pKi, versus [^3H]PSB‐15900 (5 nM).
The mark [4] stands for this setting: pKi, versus [^3H]PSB‐16254 (5 nM).
Where [5] appears, read: versus [^3H]PSB‐15900 (5 nM), read-out: pKi (converted).
[6] abbreviates: versus [³H]PSB-15900 (5 nM), read-out: Ki.

In general, Kd refers to the concentration at which binding is half-saturated. Lower therefore signals a tighter complex.

Where “and” joins values, the source holds several entries; their conditions need not be identical. Identical values can stand only once. *1 amine or outer side, *2 acyl side, *3 side chain or, on linkers, in order; H or OH if unused. Where a SMILES comes first, the peptide text is derived from it. Bridges are numbered along the chain shown (N, C = ends). [ ]: non-standard residue; d: D form. The star is where a group is joined. Leu(3R-O(AcLeu(3R-OH))) = CC(=O)N[C@H](C(=O)O[C@H](C(C)C)[C@H](N)C(=O)O)[C@H](O)C(C)C; Leu(3R-OH,Nα-propionyl) = CCC(=O)N[C@H](C(=O)*)[C@H](O)C(C)C; X1 = CC(C)[C@@H](O[*:3])[C@H](N[*:1])C(=O)[*:2]; NMeT = CN[C@H](C(=O)O)[C@@H](C)O; dPhLac = O=C(O)[C@H](O)Cc1ccccc1; NMeA = CN[C@@H](C)C(=O)O; NMeDha = C=C(NC)C(=O)O

In the case of `C=C1C(=O)N[C@@H](C)C(=O)N(C)[C@@H](C)C(=O)N[C@@H]([C@H](OC(=O)[C@@H](NC(=O)CC)[C@H](O)C(C)C)C(C)C)C(=O)N(C)[C@@H]([C@@H](C)OC)C(=O)O[C@H](C(C)C)[C@H](NC(C)=O)C(=O)O[C@H](Cc2ccccc2)C(=O)N1C` [FR, FR900359] (Ac-[X1][dPhLac][NMeDha]A[NMeA][X1](Leu(3R-OH,Nα-propionyl))[NMeT](Me); ester 1-C), the Kd on Gq proteins [1] was 4.1 ± 0.5 nM. Also, the Ki is 3 to 5 nM on Gq proteins [1] (Ki, versus both radioligands); 6.91 ± 2.25 nM at Gq proteins [1] (Ki, versus [³H]PSB-15900 (5 nM), standard 24-well format); 4.07 nM on Gq proteins [1] (setting [3]); 2.51 nM on Gq proteins [1] (setting [4]); 6.76 nM at Gq proteins [1] (pKi, versus [³H]PSB-15900 (5 nM), standard 24-well format); 2.09 nM on Gq proteins [2] (setting [5]). The Ki on Gq proteins [2] (setting [6]) amounted to 2.14 ± 0.87 nM. Also, on Gq proteins [1] (versus [^3H]PSB‐15900 (5 nM)), the “pseudo‐Bmax from pseudohomologous competition” value is 6.28 ± 1.12 pmol·mg^−1 of protein and 6.28 pmol·mg^−1 of protein.
In turn, `C=C1C(=O)N[C@@H](C)C(=O)N(C)[C@@H](C)C(=O)N[C@@H]([C@H](OC(=O)[C@@H](NC(C)=O)[C@H](O)C(C)C)C(C)C)C(=O)N(C)[C@@H]([C@@H](C)OC)C(=O)O[C@H](C)[C@H](NC(C)=O)C(=O)O[C@H](Cc2ccccc2)C(=O)N1C` [YM, YM‐254890] (Ac-T[dPhLac][NMeDha]A[NMeA][Leu(3R-O(AcLeu(3R-OH)))][NMeT](Me); ester 1-C) gave a Kd on Gq proteins [1] of 6.29 ± 0.84 nM. Moreover, the Ki on Gq proteins [1] (Ki, versus both radioligands) is 3 to 5 nM; at Gq proteins [1] (setting [3]) it was 5.01 nM; on Gq proteins [1] (setting [4]) it was 6.31 nM; at Gq proteins [2] (setting [5]), 2.09 nM; at Gq proteins [2] (setting [6]) it was 2.29 ± 0.38 nM. Further, at Gq proteins [1] (versus [^3H]PSB‐16254 (5 nM)), the “pseudo‐Bmax from pseudohomologous competition” value was 6.61 ± 0.60 pmol·mg^−1 of protein and 6.61 pmol·mg^−1 of protein.
